Where two headings read alike, the source gives them in different places.
Key:
[1] = molecular target: T1, USP2^CD (purified catalytic domain of USP2) (Homo sapiens, UniProt O75604); test: Inhibition of purified USP2^CD enzymatic activity (Ub-AMC or Ub-Rho substrate); format: biochemical; settings: for inhibition at 0.01 µM: 0.01 μM compound; for inhibition at 0.05 µM: 0.05 μM compound; for inhibition at 0.1 µM: 0.1 μM compound; for inhibition at 0.5 µM: 0.5 μM compound; for inhibition at 1 µM: 1 μM compound; for inhibition at 5 µM: 5 μM compound; for inhibition at 10 µM: 10 μM compound; for inhibition at 25 µM: 25 μM compound; for inhibition at 50 µM: 50 μM compound; for inhibition of USP2^CD activity (IC50 range, FIG. 1): Ub-Rho substrate (0.1 μM)
T1 construct: The purified catalytic domain of USP2 (USP2^CD, in-house purified); His; made in house; host or cells: E. coli BL21 Gold
T1 sequence (O75604 267-599 limits assumed): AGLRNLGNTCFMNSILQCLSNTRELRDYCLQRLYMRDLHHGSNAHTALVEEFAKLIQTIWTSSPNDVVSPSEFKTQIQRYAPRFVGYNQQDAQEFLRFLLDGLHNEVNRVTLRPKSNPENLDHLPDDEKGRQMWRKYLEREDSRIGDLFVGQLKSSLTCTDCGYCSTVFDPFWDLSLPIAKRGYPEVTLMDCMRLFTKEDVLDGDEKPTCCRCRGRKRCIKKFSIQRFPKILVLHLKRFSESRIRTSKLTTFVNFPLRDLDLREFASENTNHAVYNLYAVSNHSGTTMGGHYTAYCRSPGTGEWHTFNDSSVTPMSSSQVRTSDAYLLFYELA
Outline: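 His-tagged catalytic domain expressed in E. coli and Ni/gel-filtration purified; assayed in 50 mM HEPES pH 7.6 or 40 mM Tris pH 7.4 with 1 mM DTT. Compound added just before Ub-AMC or Ub-Rho substrate; fluorescence from hydrolysis followed over 20 or 30 min, median of duplicates.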

MESSA DX5 cells = test: Cytotoxicity assay (PrestoBlue cell viability), MESSA DX5; format: cell-based, human; settings: for EC50: Homo sapiens, MES-SA/Dx5, 48 hours treatment, chemoresistant line
Description: Messa, Messa DX5, HCT116, HEK-293, PC-3, LNCaP, HCC827 and H1975 cell lines are issued from the American Type Culture Collection (ATCC).
Messa, Messa DX5 and HCT116 were maintained in McCoy's supplemented with 10% fetal bovine serum, and 1% penicillin/streptomycin. PC-3, LNCaP cells were maintained in RPMI medium supplemented with 10% fetal bovine serum, and 1% penicilin/streptomycin and in the case of Messa DX5: 500 nM Doxorubicin was added to maintain selection pressure. HEK293 were maintained in DMEM medium supplemented with 10% fetal bovine serum, and 1% penicillin/streptomycin. Cells were maintained at 37° C. with 5% CO2, 95% air, and humid atmosphere. In the case of hormonal dependent LNCaP cells, 2 μM DiHydroTestosterone (DHT) was added or not—depending on the type of biological assay—for the same incubation period as compounds.
For cytotoxicity assays, cells were seeded in 96-well microplates 24 hours before the addition of increasing concentrations of each compound in the culture medium. Cell viability was analyzed 48 hours following addition of each compound through the monitoring of mitochondrial […] activity using PrestoBlue® Cell Viability Reagent (Invitrogen; #A-13261). Paclitaxel was used as a control which is cytotoxic on various cancerous cells although not on chemoresistant MESSA DX5 lineage.

[2] = Metabolic stability on mouse liver microsomes; format: in vitro ADME; settings: 0.5 μM, up to 30 min; for cofactors (CYP)-mediated metabolism, mouse: with cofactors; for metabolism in the absence of cofactors, mouse: without cofactors
Description: Each compound was incubated either with cofactors (n=2) or without cofactors (n=1). Positive controls were: Diclofenac, Midazolam and Amitriptyline.

[3] = test system: CyclinD1, FAS, p53, PARP, cMyc in LNCaP cells; test: Protein expression by immunoblot, LNCaP; format: cell-based, human; settings: for Myc expression level, LNCaP / PARP cleavage, LNCaP: 24 h; for Myc expression level, LNCaP / PARP cleavage, LNCaP / phosphorylated p53 (P-Ser392, P-Ser15), LNCaP: FIG. 8; for PARP cleavage, LNCaP: concentration dependent; for phosphorylated p53 (P-Ser392, P-Ser15), LNCaP: FIG. 7C
Description: In FIG. 6B and FIG. 6D, LNCaP cells were treated with dihydrotestosterone (DHT) to induce hormonal dependent FAS expression. Actin or Tubulin (Tub) serve as loading controls. One representative experiment out of three is presented.
Actin or Tubulin (Tub) serve as loading controls. One representative experiment out of three is presented.
Tubulin (Tub) serves as loading controls. One representative experiment out of three is presented.
Cells were treated by either DMSO (0.5%) or increasing doses of the selected molecules from 1 μM to 10 μM over 6 to 24 hours as indicated. Cell lysates were analyzed by immunoblotting following standard procedure using primary antibodies from Cell Signaling: anti-total P53 (#9282), anti-phosphoP53 Kit (#9919), anti-cyclinD1 (#2926), anti-FAS (#3189), anti EGFR (#4267), anti-Phospho (tyr1068) EGFR (#2234), anti Met (#4560), anti-Akt (#9272), anti Phospho(Ser473)-Akt (#9271) or anti-Myc (Santa Cruz Technology #Sc-40). Tubulin was detected using anti α-tubulin primary antibody (in-house: the polyclonal Glu-tubulin antibody (L4) is available commercially from Abcys (Paris, France)). HRP-coupled anti-rabbit (#A6154) and anti-mouse (#A4416) secondary antibodies were purchased from Sigma. HRP activity was detected through HRP chemoluminescence detection reagent (Millipore, #WBLUF0100). Apoptotic cell death induction was observed through the observation of PARP cleavage using anti-PARP primary antibodies anti-PARP (46D11) (#9532). Positive control was Epotoside at 50 μM or 100 μM, a known drug inducing cancerous cell death by apoptosis.

[4] = Ub-AMC substrate at 1 μM, Table 2b, read-out: IC50 USP2 CD
[5] = dose and time dependent, 6 h or 24 h, FIG. 6

| inhibition at 0.01 µM ([1]; Table 1c) [%] | inhibition at 0.05 µM ([1]; Table 1c) [%] | inhibition at 0.1 µM ([1]; Table 1c) [%] | inhibition at 0.5 µM ([1]; Table 1c) [%] | inhibition at 1 µM ([1]; Table 1b) [%] | inhibition at 1 µM ([1]; Table 1c) [%] | inhibition at 5 µM ([1]; Table 1b) [%] | inhibition at 5 µM ([1]; Table 1c) [%] | inhibition at 10 µM ([1]; Table 1c) [%] | inhibition at 25 µM ([1]; Table 1b) [%] | inhibition at 50 µM ([1]; Table 1b) [%] | IC50 [1, 4] [nM] | SMILES | EC50 (MESSA DX5 cells) [nM] | inhibition of USP2^CD activity (IC50 range, FIG. 1) [1] | sensitivity of chemo-resistant MESSA-DX5 compared with nonresistant MESSA cell line (MESSA DX5 cells) | cofactors (CYP)-mediated metabolism, mouse [2] | metabolism in the absence of cofactors, mouse [2] | Myc expression level, LNCaP [3] | PARP cleavage, LNCaP [3] | phosphorylated p53 (P-Ser392, P-Ser15), LNCaP [3] | also measured |
| --- | --- | --- | --- | --- | --- | --- | --- | --- | --- | --- | --- | --- | --- | --- | --- | --- | --- | --- | --- | --- | --- |
| -29 | 2 | 9 | 10 | 54 | 12 | 68 | 20 | 17 | 86 | 96 | > 10000 | O=C1c2ccccc2C(=O)c2nc(CS(=O)(=O)c3ccccc3F)c(CS(=O)(=O)c3ccccc3F)nc21 [OVM24] | 800 |  |  |  |  |  |  |  |  |
|  |  |  |  |  |  |  |  |  |  |  |  | CCCCS(=O)(=O)Cc1nc2c(nc1CS(=O)(=O)CCCC)C(=O)c1ccccc1C2=O [PCR6236] | 3500 | in the micromolar range | equally sensitive | high | No metabolism was observed | decrease | induced the cleavage of PARP | accumulated | IC50 [1]: 2100 nM; expression level of CyclinD1, LNCaP [3, 5]: strongly decreased; expression level of FAS, LNCaP [3, 5]: strongly decreased; p53 expression, LNCaP ([3]; dose dependent, FIG. 7A): restored high levels of p53 expression |
|  |  |  |  |  |  |  |  |  |  |  |  | CCCCS(=O)(=O)Cc1nc2c(o1)C(=O)c1ccccc1C2=O [PCR9301] | 1800 | in the micromolar range | equally sensitive | not or poorly metabolized | No metabolism was observed | cMyc degradation | induced PARP cleavage | phosphorylation of p53 on Ser15 | inhibition at 1 µM ([1]; Table 3a): 77%; inhibition at 5 µM ([1]; Table 3a): 99%; inhibition at 25 µM ([1]; Table 3a): 100%; inhibition at 50 µM ([1]; Table 3a): 100%; IC50 ([1]; Ub-Rho substrate, Table 3b, read-out: IC50 against purified USP2^CD): 400 nM |
| 1 | -13 | -23 | 23 | 38 | 17 | 81 | 70 | 77 | 98 | 101 | 3000 | CCCS(=O)(=O)Cc1nc2c(nc1CS(=O)(=O)CCC)C(=O)c1ccccc1C2=O [VIN6074] | 3500 |  |  |  |  |  |  |  | IC50 ([1]; Ub-Rhodamine substrate at 0.1 μM, Table 2c, read-out: IC50 USP2 CD): 500 nM |
